Test results taken from patent US8592469B2, “Diazonamide analogs” (Joyant Pharmaceuticals, Inc., priority 2012, dated 2013).

What was measured:
A2058 cells = assay: Cell viability assay (Cell-Titer-Glo) in A2058 cells; format: cell-based; conditions: Homo sapiens, 48 hour treatment, test compounds 1 nM to 1 μM
Protocol: (§1) Cell viability assays were run using standard protocols known to those of skill in art. Cells were plated in 96 well plates at the density of 3,000-10,000 cells per well. Twenty four hours later, cells were treated with increasing concentration of test compounds (1 nM to 1 μM). After another 48 hour, cell survival was measured using Cell-Titer-Glo® reagent (Promega) following the protocol provided by the manufacture. The IC50 value was determined as the concentration of test compound that kills 50% of the cell population.
(§2) Cell viability data generated according to the protocol described above was generated for representative compounds in A2058 and U937 cells. The compounds shown in Table 1 were prepared by the methods described herein for structurally similar compounds. The reference compound was a synthetic diazonamide analog having the structure: […]

U937 cells = assay: Cell viability assay (Cell-Titer-Glo) in U937 cells; format: cell-based; conditions: Homo sapiens, U-937, 48 hour treatment, test compounds 1 nM to 1 μM
Protocol: as §1, §2

## CCC(O)(CC)C(=O)N[C@H]1Cc2ccc3c(c2)C2(C4=C(c5nc(C(=O)OC)co5)N=C(O4)[C@H](C(C)(C)C)NC1=O)c1ccccc1N[C@H]2O3 (stereo partly drawn) [Compound 63]
A2058 cells
  IC50: 15.5 nM
U937 cells
  IC50: 1.97 nM

## CCC(O)(CC)C(=O)N[C@H]1Cc2ccc3c(c2)C2(C4=C(c5nc(CO)co5)N=C(O4)[C@H](C(C)(C)C)NC1=O)c1ccccc1N[C@H]2O3 (stereo partly drawn) [Compound 64]
A2058 cells
  IC50: 43.2 nM
U937 cells
  IC50: 45.9 nM

## CCC(O)(CC)C(=O)N[C@H]1Cc2ccc3c(c2)C2(C4=C(c5nc(C#N)co5)N=C(O4)[C@H](C(C)(C)C)NC1=O)c1ccccc1N[C@H]2O3 (stereo partly drawn) [Compound 65]
A2058 cells
  IC50: 16.8 nM
U937 cells
  IC50: 67.6 nM

## CC(C)=CC(=O)N[C@H]1Cc2ccc3c(c2)C2(C4=C(c5nc(C#N)co5)N=C(O4)[C@H](C(C)(C)C)NC1=O)c1ccccc1N[C@H]2O3 (stereo partly drawn) [Compound 66]
A2058 cells
  IC50: 186 nM
U937 cells
  IC50: 215 nM

## CC(C)C[C@H](O)C(=O)NC1Cc2ccc3c(c2)C2(C4=C(c5nc(C#N)co5)N=C(O4)[C@H](C(C)(C)C)NC1=O)c1ccccc1N[C@H]2O3 (stereo partly drawn) [Compound 67]
A2058 cells
  IC50: 35.8 nM
U937 cells
  IC50: 89.7 nM

## CCC(C)(O)C(=O)N[C@H]1Cc2ccc3c(c2)C2(C4=C(c5nc(C#N)co5)N=C(O4)[C@H](C(C)(C)C)NC1=O)c1ccccc1N[C@H]2O3 (stereo partly drawn) [Compound 68]
A2058 cells
  IC50: 21.1 nM
U937 cells
  IC50: 59.6 nM

## CCC(C)(C)C(=O)NC1Cc2ccc3c(c2)C2(C4=C(c5nc(C#N)co5)N=C(O4)[C@H](C(C)(C)C)NC1=O)c1ccccc1N[C@H]2O3 (stereo partly drawn) [Compound 69]
A2058 cells
  IC50: 95.5 nM
U937 cells
  IC50: 225 nM

## COC(=O)c1coc(-c2nc3oc2[C@@]24c5ccccc5NC2Oc2c(Cl)cc(cc24)CC(NC(=O)[C@@H](O)C(C)C)C(=O)N[C@H]3C(C)C)n1 (stereo partly drawn) [Compound 70]
A2058 cells
  IC50: 77 nM
U937 cells
  IC50: 15 nM

## COC(=O)c1coc(-c2nc3oc2[C@@]24c5ccccc5NC2Oc2c(F)cc(cc24)CC(NC(=O)[C@@H](O)C(C)C)C(=O)N[C@H]3C(C)C)n1 (stereo partly drawn) [Compound 71]
A2058 cells
  IC50: 67 nM
U937 cells
  IC50: 9.2 nM

## CCCCCCc1cc2cc3c1O[C@@H]1Nc4ccccc4C31c1oc(nc1-c1nc(C(=O)OC)co1)[C@H](C(C)C)NC(=O)[C@@H](NC(=O)[C@@H](O)C(C)C)C2 (stereo partly drawn) [Compound 72]
A2058 cells
  IC50: > 300 nM
U937 cells
  IC50: 213 nM

## COC(=O)c1coc(-c2nc3oc2C24c5ccccc5N[C@H]2Oc2ccc(cc24)CC[C@H](NC(=O)[C@@H](O)C(C)C)C(=O)N[C@H]3C(C)(C)C)n1 (stereo partly drawn) [Compound 73]
A2058 cells
  IC50: < 0.1 nM
U937 cells
  IC50: < 0.1 nM

## COC(=O)c1coc(-c2nc3oc2[C@]24c5ccccc5NC2Oc2ccc(cc24)CC[C@H](NC(=O)[C@@H](O)C(C)C)C(=O)N[C@H]3C(C)(C)C)n1 (stereo partly drawn) [Compound 74]
A2058 cells
  IC50: > 100 nM
U937 cells
  IC50: > 100 nM

## CC(C)[C@H](O)C(=O)N[C@H]1CCc2ccc3c(c2)[C@]2(C4=C(c5nc(CO)co5)N=C(O4)[C@H](C(C)(C)C)NC1=O)c1ccccc1NC2O3 (stereo partly drawn) [Compound 75]
A2058 cells
  IC50: 1.89 nM
U937 cells
  IC50: 6.55 nM

## COC(=O)c1coc(-c2nc3oc2C24c5cc(ccc5O[C@@H]2N(S(C)(=O)=O)c2ccccc24)C[C@H](NC(=O)[C@@H](O)C(C)C)C(=O)N[C@H]3C(C)C)n1 (stereo partly drawn) [Compound 76]
A2058 cells
  IC50: > 1000 nM
U937 cells
  IC50: 614 nM

## CC(C)[C@H](O)C(=O)N[C@H]1Cc2ccc3c(c2)C2(C4=C(c5nc(CO)co5)N=C(O4)[C@H](C(C)C)NC1=O)c1ccccc1N(S(C)(=O)=O)[C@H]2O3 (stereo partly drawn) [Compound 77]
A2058 cells
  IC50: > 1000 nM
U937 cells
  IC50: 777 nM

## COC(=O)c1coc(-c2nc3oc2C24c5cc(ccc5O[C@@H]2N(C)c2ccccc24)C[C@H](NC(=O)[C@@H](O)C(C)C)C(=O)N[C@H]3C(C)C)n1 (stereo partly drawn) [Compound 78]
A2058 cells
  IC50: 114 nM
U937 cells
  IC50: 17.4 nM

## COC(=O)c1coc(-c2nc3oc2C24c5cc(ccc5O[C@@H]2Nc2c(-c5ccccc5)cccc24)C[C@H](NC(=O)[C@@H](O)C(C)C)C(=O)N[C@H]3C(C)C)n1 (stereo partly drawn) [Compound 79]
A2058 cells
  IC50: 270 nM
U937 cells
  IC50: 210 nM

## COC(=O)c1coc(-c2nc3oc2C24c5cc(F)ccc5N[C@H]2Oc2ccc(cc24)C[C@H](NC(=O)[C@@H](O)C(C)C)C(=O)N[C@H]3C(C)C)n1 (stereo partly drawn) [Compound 80]
A2058 cells
  IC50: 13.6 nM
U937 cells
  IC50: 4.07 nM
